Measured values as given in patent US9556217B2, “Amphiphilic compounds” (WISCONSIN ALUMNI RESEARCH FOUNDATION, priority 2012, dated 2017).

What was measured:
[1] = Critical micelle concentration (fluorescent dye solubilization); type: physicochemical
From the text: The “Critical Micelle Concentration” (CMC) refers to the concentration of a detergent (e.g., an amphiphile as described herein) in an aqueous solution at which the detergent molecules self-assemble into micelles. Below the CMC, detergents are mostly monomeric; above the CMC, micelle concentration increases linearly with detergent concentration. The CMC is dependent upon many factors and is detergent-specific. The CMC of a detergent can be determined experimentally by measuring the solubilization of a water-insoluble dye or fluorophore while varying the concentration of detergent. A CMC may also be determined by measuring the diminution of the surface tension of an aqueous solution as a function of detergent concentration (CMCs determined by either method correlate with each other). The CMC is determined by extrapolating the plot of solubilization vs. concentration (or surface tension vs. concentration) in the two linear regions above and below the CMC. Where the two lines intersect is the CMC. The CMC can also be determined by the method of Nugebauer, J. M. (1990), Methods in Enzymology, 182:239-253.
The four compounds were readily prepared on a multi-gram scale (see Examples 1 and 2 below, and FIGS. 13-15), as is necessary if they are to serve as research tools. All four are highly soluble in aqueous solution (>20 wt %) and have relatively low critical micelle concentrations (CMC; determined by fluorescent dye solubilization).

β2AR-T4L = β2AR-T4L thermostability (Tm, carazolol fluorescence); design: species or system human; conditions: for β2AR-T4L Tm comparison at higher concentrations: higher concentrations than CMC+0.05 wt %
Description: To assess the new amphiphiles with a GPCR, a human 132 adrenergic receptor-T4-lysozyme fusion protein (β2AR-T4L) was used (Rosenbaum et al., Science 2007, 318, 1266-1273). Stability was assessed via […] of β2AR-T4L bound to the inverse agonist carazolol. β2AR-T4L was initially solubilized and purified with DDM, and this detergent was then exchanged for the agent to be evaluated. The fluorescence emission maximum of carazolol occurs at 356 nm in aqueous solution, but emission is shifted to 341 nm in the receptor-bound state. The 341:356 nm peak intensity ratio was used to monitor the relative amounts of intact and denatured β2AR-T4L, with Tm defined as the temperature at which the 341:356 nm peak intensity ratio is half-way between that of fully native receptor and the fully denatured receptor.
Stability of β2AR-T4L was assessed by measuring the melting temperature (Tm) of the receptor according to the procedure reported by Chae and coworkers (Nat. Methods 2010, 7, 1003-1008).
A receptor fusion protein of T4 lysozyme inserted in the 3rd intracellular loop of the β2AR^4 was cloned into BestBac baculovirus (Expression Systems, CA) and expressed in Sf9 insect cell cultures. The receptor was solubilized and purified in DDM as previously described (Kobilka, Anal. Biochem. 1995, 231, 269-271). […]
For stability measurements the carazolol-bound receptor was diluted below the CMC for DDM by adding 3 μL of the concentrated receptor in a quartz cuvette containing 600 μL buffer (100 mM NaCl, 20 mM HEPES, pH 7.5) with amphiphiles at various concentrations above their CMC. […] Fluorescence emission from carazolol was obtained following 5 min incubations from 25 to 85° C. in twelve continuous 5° C. increments. Excitation was set at 325 nm, and emission was measured from 335 to 400 nm with an integration time of 0.3 s nm-1 using a bandpass of 1 nm for both excitation and emission. The 341:356 nm peak ratio was calculated and graphed using Microsoft Excel and GraphPad Prism software.

[2] = Hydrodynamic radius of micelles by dynamic light scattering; type: physicochemical; conditions: Mean ± SD, n = 5
From the text: These values are somewhat smaller than the CMC of DDM, which indicates a strong tendency of the new agents to self-assemble, and which can be advantageous for IMP handling because detrimental levels of non-micellar amphiphile can be avoided. Table 1 provides the hydrodynamic radius (Rh) of the micelles formed by each amphiphile, as determined by dynamic light scattering (DLS). The micelles formed by GLC amphiphiles are slightly smaller than those formed by DDM, while the micelles formed by GDN are slightly larger.

SMILES	CMC [1] [µM]	CMC (wt %) [1] [wt %]	β2AR-T4L Tm comparison at relatively low concentrations (β2AR-T4L; <CMC+0.05 wt %)	Rh (nm), hydrodynamic radius of micelles [2] [nm]	β2AR-T4L Tm comparison at higher concentrations (β2AR-T4L)
CCCCCCCCCCCCO[C@@H]1O[C@H](CO)[C@@H](O[C@H]2O[C@H](CO)[C@@H](O)[C@H](O)[C@H]2O)[C@H](O)[C@H]1O [DDM, dodecyl-β-D-maltoside, reference compound]	~170	~0.0087	superior to the new amphiphiles	3.42 ± 0.03	–
C[C@@H]1CC[C@@]2(OC1)O[C@H]1C[C@H]3[C@@H]4CC=C5C[C@@H](OCCC(CO[C@@H]6OC(CO)[C@@H](O[C@H]7OC(CO)[C@@H](O)C(O)C7O)C(O)C6O)CO[C@@H]6OC(CO)[C@@H](O[C@H]7OC(CO)[C@@H](O)C(O)C7O)C(O)C6O)CC[C@]5(C)[C@H]4CC[C@]3(C)[C@@H]1[C@@H]2C (stereo partly drawn) [GDN, glyco-diosgenin]	~18	~0.0021	–	3.86 ± 0.05	superior to DDM
CO[C@@H]1CC[C@@]2(C)[C@H](CC[C@@H]3[C@@H]2CC[C@]2(C)[C@@H]([C@H](C)CCCOCC(C)(CO[C@@H]4OC(CO)C(O[C@@H]5OC(CO)[C@@H](O)[C@H](O)C5O)[C@@H](O)C4O)CO[C@@H]4OC(CO)[C@@H](O[C@H]5OC(CO)[C@@H](O)[C@H](O)C5O)[C@H](O)C4O)CC[C@@H]32)C1 (stereo partly drawn) [GLC-2]	~8.0	~0.0009	–	3.32 ± 0.04	superior to DDM
